Results as given in publication PMC3610419, “A Randomized, Double-Blind Placebo Controlled Trial of Balapiravir, a Polymerase Inhibitor, in Adult Dengue Patients” (The Journal of Infectious Diseases, 2012).
Marks after values point to notes of the source that are not given here.

Assays:
DENV-1 = experiment: Inhibition of DENV replication in Huh-7 cells, viral RNA by quantitative real time PCR; assay type: cell-based, dengue virus; details: Dengue virus, DENV1, Huh-7, 48 h, mean ± SD of 3 experiments
Procedure: (§1) ^a Each experiment was done in duplicate. The mean and standard deviation shown represent 3 independent (different date) experiments for each virus tested. Huh-7 cells were plated in 96-well plate at 10,000 cells/well in DMEM containing 10 % FBS in 100 μl volume one day prior to set up of the assay. The following day the medium was aspirated off and diluted virus at a multiplicity of infection of 0.5 or media was added to the assay and control wells, respectively. The virus was allowed to attach to the cells for two hours at 37°C in a humidified 5% C02 atmosphere while the dilutions of the test molecule were prepared. Test molecules (or medium as a control) were added after aspiration of the virus-containing media 2 hours post-infection in 3-fold dilutions at a final DMSO concentration of 1%. After 48 hrs, cells were washed and cellular RNA were isolated. In this study, we used a quantitative real time PCR method to quantitate dengue viral RNA in Huh-7 in the presence of inhibitors. Viral RNA and endogenous 18S rRNA control (Applied Bio System) was quantified by a real time PCR assay using the following primers. Dengue Reverse (Common to all the serotypes): 5’-[…]-3’, Dengue forward serotype 1: 5’-[…]-3’, Dengue forward serotype 2 or 3: 5’-[…]-3’, Dengue forward serotype 4: 5’-[…] -3’ and Dengue probe (Common to all the serotypes): 5'-/56-FAM/[…]/3BHQ_1/-3'. Taqman was performed in duplicate. IC50 was obtained using the following calculations. First ΔCt was calculated by subtracting 18S rRNA CT value from dengue RNA CT value. ΔCts from duplicate taqman assay were averaged. Then ΔΔCt was obtained by subtracting the average ΔCt of non-treated sample from the treated sample average ΔCt. Relative quantification was calculated using the following formula. Relative quantification = 2^-averageΔΔCT. The 50% inhibitory concentrations (EC50) were calculated using the sigmoidal dose-response model in Microsoft XLfit.

DENV-3 = experiment: as above; assay type: cell-based, dengue virus; details: Dengue virus, DENV3, Huh-7, 48 h, mean ± SD of 3 experiments
Procedure: as §1

DENV-4 = experiment: as above; assay type: cell-based, dengue virus; details: Dengue virus, DENV4, Huh-7, 48 h, mean ± SD of 3 experiments
Procedure: as §1

[1] = Safety and tolerability, adverse events in adult dengue patients; details: for safety and tolerability: 1500 mg or 3000 mg orally twice daily for 5 days, adult dengue patients
Procedure: Randomization to treatment group was by computer-generated randomization sequencing in blocks of 2. Balapiravir was formulated in a 500-mg film-coated tablet. The placebo consisted of an identical looking tablet containing excipient only. All balapiravir and placebo tablets were provided by F. Hoffmann-La Roche. Patients in cohort 1 (n = 20) received 1500 mg of balapiravir or an identical placebo orally every 12 hours for 5 days (10 doses). The decision to dose escalate (to 3000 mg) was made after review of the partially unblinded group mean clinical and laboratory data acquired from patients in cohort 1. Patients in cohort 2 (n = 44) received 3000 mg of balapiravir or placebo orally twice a day for 5 days (10 doses).
Eligible patients remained in clinic during a 7-day in-patient period then returned for follow-up visits on study days 14, 28, and 84. During the inpatient period, patient vital signs were assessed every 6 hours and routine laboratory investigations were performed daily or as clinically indicated. Safety and tolerability were monitored at regular intervals and included physical examinations, vital signs, electrocardiograms, clinical laboratory assessments, incidence of clinical adverse events, and concomitant medications. Any clinically significant abnormal laboratory test results were followed up until resolved or stabilized. A quality of life assessment, using a questionnaire and a visual analog scale, was implemented on study days 1, 3, 5, 7, 14, 28, and 84.

[2] = High dose (3000 mg twice a day, 5 days), n=22
[3] = Low dose (1500 mg twice a day, 5 days), n=10

CC(C)C(=O)OC[C@@]1(N=[N+]=[N-])O[C@@H](n2ccc(N)nc2=O)[C@H](OC(=O)C(C)C)[C@@H]1OC(=O)C(C)C [Balapiravir]
IC50 (DENV-1; DENV-1 strain FR28 (clinical isolate)): 6.8 ± 1.1 µM
IC50 (DENV-1; DENV-1 strain FR34 (clinical isolate)): 7 ± 2 µM
IC50 (DENV-1; DENV-1 strain FR37 (clinical isolate)): 7.2 ± 2 µM
IC50 (DENV-1; DENV-1 strain FR42 (clinical isolate)): 7.4 ± 2.3 µM
IC50 (DENV-1; DENV-1 strain Thsman): 8.8 ± 1.2 µM
IC50 (DENV-3; DENV-3 strain 33/0072 (clinical isolate), Huh-7 cells): 3 ± 0.4 µM
IC50 (DENV-3; DENV-3 strain 33/0096 (clinical isolate), Huh-7 cells): 3.4 ± 1.7 µM
IC50 (DENV-3; DENV-3 strain 33/0177 (clinical isolate), Huh-7 cells): 3.2 ± 0.9 µM
IC50 (DENV-3; DENV-3 strain 33/0253 (clinical isolate), Huh-7 cells): 4.4 ± 0.9 µM
IC50 (DENV-3; DENV-3 strain H87, Huh-7 cells): 3.7 ± 0.9 µM
IC50 (DENV-4; DENV-4 strain H241, Huh-7 cells): 11 ± 1 µM
IC50 (DENV-4; DENV-4 strain Phili/1567, Huh-7 cells): 2 ± 0.4 µM
IC50 (DENV-4; DENV-4 strain Senga/DA, Huh-7 cells): 6.5 ± 0.9 µM
IC50 (DENV-4; DENV-4 strain Venz/JQ, Huh-7 cells): 5.5 ± 1.3 µM
reported serious adverse events (SAEs) ([1]; 1500 mg balapiravir arm): 1
safety and tolerability [1]: safe and well-tolerated
safety and tolerability ([1]; listed as balapiravir): well tolerated
reported serious adverse events (SAEs) ([1]; 3000 mg balapiravir arm): 1
ABDOMINAL PAIN [1, 2]: 3 (13.64%) no.pt. (%)
ABNORMAL INR [1, 2]: 1 (4.55%) no.pt. (%)
ALTERATION OF TASTE [1, 2]: 0 (0%) no.pt. (%)
ANOREXIA [1, 2]: 1 (4.55%) no.pt. (%)
ANY EVENT - no (%) patients with at least one event [1, 2]: 19 (86.36%) no.pt. (%)
ANY EVENT - no of events [1, 2]: 65
BRUISING [1, 2]: 2 (9.09%) no.pt. (%)
COUGH [1, 2]: 4 (18.18%) no.pt. (%)
DECREASE OF FIBRINOGEN [1, 2]: 4 (18.18%) no.pt. (%)
DIARRHOEA [1, 2]: 8 (36.36%) no.pt. (%)
DYSPEPSIA [1, 2]: 1 (4.55%) no.pt. (%)
ELEVATED ALT [1, 2]: 0 (0%) no.pt. (%)
ELEVATED AST [1, 2]: 0 (0%) no.pt. (%)
EPISTAXIS [1, 2]: 0 (0%) no.pt. (%)
FLATULENCE [1, 2]: 0 (0%) no.pt. (%)
GUM BLEEDING [1, 2]: 6 (27.27%) no.pt. (%)
HEADACHE [1, 2]: 5 (22.73%) no.pt. (%)
HEMATEMESIS [1, 2]: 0 (0%) no.pt. (%)
HEMATURIA [1, 2]: 1 (4.55%) no.pt. (%)
HEMOPTYSIS [1, 2]: 0 (0%) no.pt. (%)
HYPOALBUMINEMIA [1, 2]: 1 (4.55%) no.pt. (%)
ITCHY RASH ON CHEEK, AND FOREHEAD [1, 2]: 0 (0%) no.pt. (%)
NARROW PULSE PRESSURE [1, 2]: 0 (0%) no.pt. (%)
NAUSEA [1, 2]: 2 (9.09%) no.pt. (%)
PETECHIAE [1, 2]: 6 (27.27%) no.pt. (%)
PROLONGED APTT [1, 2]: 7 (31.82%) no.pt. (%)
PROTEINURIA [1, 2]: 0 (0%) no.pt. (%)
PRURITIS [1, 2]: 0 (0%) no.pt. (%)
RETINAL INJURY [1, 2]: 0 (0%) no.pt. (%)
SORE THROAT [1, 2]: 0 (0%) no.pt. (%)
VERTIGO [1, 2]: 0 (0%) no.pt. (%)
VOMIT [1, 2]: 2 (9.09%) no.pt. (%)
THROMBOCYTOPENIA ([1]; High dose (3000 mg twice a day, 5 days), n=22, one patient in this group had a SAE): 11 (50%) ^a no.pt. (%)
ABDOMINAL PAIN [1, 3]: 0 (0%) no.pt. (%)
ABNORMAL INR [1, 3]: 0 (0%) no.pt. (%)
ALTERATION OF TASTE [1, 3]: 0 (0%) no.pt. (%)
ANOREXIA [1, 3]: 2 (20%) no.pt. (%)
ANY EVENT - no (%) patients with at least one event [1, 3]: 8 (80%) no.pt. (%)
ANY EVENT - no of events [1, 3]: 30
BRUISING [1, 3]: 0 (0%) no.pt. (%)
COUGH [1, 3]: 0 (0%) no.pt. (%)
DECREASE OF FIBRINOGEN [1, 3]: 1 (10%) no.pt. (%)
DIARRHOEA [1, 3]: 4 (40%) no.pt. (%)
DYSPEPSIA [1, 3]: 1 (10%) no.pt. (%)
ELEVATED ALT [1, 3]: 0 (0%) no.pt. (%)
ELEVATED AST [1, 3]: 0 (0%) no.pt. (%)
EPISTAXIS [1, 3]: 0 (0%) no.pt. (%)
FLATULENCE [1, 3]: 0 (0%) no.pt. (%)
GUM BLEEDING [1, 3]: 0 (0%) no.pt. (%)
HEADACHE [1, 3]: 2 (20%) no.pt. (%)
HEMATEMESIS [1, 3]: 0 (0%) no.pt. (%)
HEMATURIA [1, 3]: 0 (0%) no.pt. (%)
HEMOPTYSIS [1, 3]: 0 (0%) no.pt. (%)
HYPOALBUMINEMIA [1, 3]: 1 (10%) no.pt. (%)
ITCHY RASH ON CHEEK, AND FOREHEAD [1, 3]: 1 (10%) no.pt. (%)
NAUSEA [1, 3]: 0 (0%) no.pt. (%)
PETECHIAE [1, 3]: 4 (40%) no.pt. (%)
PROLONGED APTT [1, 3]: 2 (20%) no.pt. (%)
PROTEINURIA [1, 3]: 1 (10%) no.pt. (%)
PRURITIS [1, 3]: 1 (10%) no.pt. (%)
RETINAL INJURY [1, 3]: 0 (0%) no.pt. (%)
SORE THROAT [1, 3]: 0 (0%) no.pt. (%)
THROMBOCYTOPENIA [1, 3]: 4 (40%) no.pt. (%)
VERTIGO [1, 3]: 1 (10%) no.pt. (%)
VOMIT [1, 3]: 4 (40%) no.pt. (%)
NARROW PULSE PRESSURE ([1]; Low dose (1500 mg twice a day, 5 days), n=10, one patient in this group had a SAE): 1 (10%) ^a no.pt. (%)
